{"source": "patent US5010089A", "about": "“CCK antagonists and their use in treating gastrointestinal disorders” (Biomeasure, Inc., priority 1989, dated 1991)", "key": {"gastric emptying": {"system": "gastric emptying", "assay": "anti-spasmodic activity: effect on gastric emptying (charcoal meal) after CCK-8 in mice", "format": "in vivo, CF1 mice", "conditions": "for ED50: Mus musculus, anti-spasmodic activity", "experimental": "In vivo studies were made to test the therapeutic effect of α-N-(2-indolylcarbonyl) L-tryptyl-N'-phenylethylglycine (BIM-18216),α-N-(3-quinolylcarbonyl)-L-tryptyl-N'-phenylethylglycine (BIM-18225), α-N-(2-naphthylcarbonyl)-L-tryptyl-N'-phenylethylglycine (BIM-18226), and α-N-(2-indolylcarbonyl) D-tryptyl-N'-phenylethylglycine (BIM-18227). The effect of the foregoing compounds on gastric emptying was measured as the percentage of anti-spasmodic activity. Tests were carried out on female CF1 mice as follows. Mice weighing approximately 20 g were fasted overnight. Test compounds were administered in one of four ways: intraperitoneally (i.p.), subcutaneously (s.c.), intravenously (i.v.), or orally (p.o.). Test compounds administered orally were dissolved in a mixture of 75% by volume polyethylene glycol 400 NF, 15% by volume propylene glycol USP, and 10% by volume purified H2 O USP. For other methods of administration, the test compounds were dissolved in a solution of saline containing 10% DMSO (by volume) for i.v. administration; and in a solution of saline containing 10% DMSO (by volume) and 0.25% methylcellulose (by weight) for s.c. or i.p. administration. Test compounds were administered to the mice 15 minutes prior to administering CCK-8 (40 μg/kg, s.c.). The mice were fed a charcoal meal orally 5 minutes after CCK injection and the animals were sacrificed 5 minutes later. The lengths of the intestines filled with charcoal were measured and the % of anti-spasmodic activity was calculated based upon the lengths according to the following formula: [formula]\nTable 2, below, contains data on the anti-spasmodic activity of the compounds tested by oral administration.\nTable 3, below, contains data for the test compound BIM-18216 administered in each of the four different ways discussed above."}, "Pancreatic CCK Receptor": {"target": "T1, Pancreatic CCK Receptor (Rattus norvegicus, UniProt P30551)", "T1 construct": "the pancreas or cerebral was removed and homogenized; from tissue; host or cells: pancreas of male Sprague-Dawley rats, membrane preparation", "T1 sequence (P30551 1-444)": "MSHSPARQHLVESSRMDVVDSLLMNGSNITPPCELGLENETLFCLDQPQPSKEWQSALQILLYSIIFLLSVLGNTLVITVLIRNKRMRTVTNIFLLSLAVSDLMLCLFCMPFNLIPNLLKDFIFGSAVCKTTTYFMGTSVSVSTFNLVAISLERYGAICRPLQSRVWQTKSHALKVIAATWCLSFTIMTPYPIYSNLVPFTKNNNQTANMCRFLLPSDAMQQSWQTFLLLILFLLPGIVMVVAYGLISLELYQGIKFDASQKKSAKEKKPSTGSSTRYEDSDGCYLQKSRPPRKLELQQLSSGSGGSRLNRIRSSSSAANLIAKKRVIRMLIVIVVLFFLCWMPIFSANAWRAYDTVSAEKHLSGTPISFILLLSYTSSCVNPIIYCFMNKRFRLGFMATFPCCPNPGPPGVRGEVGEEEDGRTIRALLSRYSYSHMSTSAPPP", "assay": "[125I]CCK8 binding assay, pancreatic membranes", "set-up": "species or system Sprague-Dawley rats", "conditions": "[125I]CCK8 0.05 nM, rat pancreas membranes, 90 min, 25° C.", "experimental": "Inhibition studies of CCK by specific compounds of the present invention were carried out as follows. Male, Sprague-Dawley rats were sacrificed by decapitation and the pancreas or cerebral was removed and homogenized with a Brinkman Polytron (setting 6, 15 sec). The homogenates were centrifuged twice at 39,000 g for 10 min (4° C.), with an intermediate resuspension in fresh buffer. The final pellets were resuspended in the following buffer for the [^125 I]CCK8 binding assay: 10 mM HEPES, 118 mM NaCL, 4.7 mM KCl, and 5 mM MgCL2, 1 mM EGTA, 5 mg/ml bovine serum albumin, and 0.25 mg/ml bacitracin.\nFor the [^125 I]CCK8 binding assay, aliquots of the membrane preparations were added to plastic culture tubes containing 0.05 nM [^125 I]CCK8 (2200 Ci/mmol, New England Nulclear Corp ) and various concentrations of the test compounds in a final volume of 0.5 ml. The incubation period was 90 min (25° C.). The binding reaction was terminated by the addition of 4 ml of ice-cold buffer, followed by filtration through Whatman GF/B filters which had been previously soaked in 2% bovine serum albumin. Each tube and filter were then washed three times with 4-ml aliquots of ice-cold buffer. The radioactivity trapped on the filters was counted in an LKB Clini Gamma counter. Specific binding was defined as the total [^125 I]CCK8 bound minus that bound in the presence of 1 μM unlabeled CCK8.\nTable 1 sets forth data from inhibition studies of CCK by specific compounds of the present invention in which Ar, m, and A are defined as set forth below: […]"}, "[1]": {"conditions": "Table 2, 100 mg/kg p.o., 15 min before CCK-8 (40 μg/kg, s.c.)"}, "[2]": {"conditions": "Table 2, 125 mg/kg p.o., 15 min before CCK-8 (40 μg/kg, s.c.), 125 mg/kg"}, "[3]": {"conditions": "Table 2, 125 mg/kg p.o., 15 min before CCK-8 (40 μg/kg, s.c.)"}}}
{"compound": "O=C(O)CN(CCc1ccccc1)C(=O)C(Cc1c[nH]c2ccccc12)NC(=O)c1cc2ccccc2[nH]1", "note": "[BIM-18227, α-N-(2-indolylcarbonyl) D-tryptyl-N'-phenylethylglycine]", "values": [{"measurement": "% Anti-Spasmodic Activity", "setting": "gastric emptying; [1]", "result": 24, "unit": "%"}, {"measurement": "% Anti-Spasmodic Activity", "setting": "gastric emptying; [2]", "result": 60, "unit": "%"}, {"measurement": "IC50", "setting": "Pancreatic CCK Receptor", "result": 30, "unit": "nM"}]}
{"compound": "O=C(O)CN(CCc1ccccc1)C(=O)C(Cc1c[nH]c2ccccc12)NC(=O)c1ccc2ccccc2n1", "note": "[2-quinolyl, α-N-(2 quinolylcarbonyl) L-tryptyl-N'-phenylethylglycine]", "values": [{"measurement": "IC50", "setting": "Pancreatic CCK Receptor", "result": 170, "unit": "nM"}]}
{"compound": "O=C(O)CN(CCc1ccccc1)C(=O)C(Cc1c[nH]c2ccccc12)NC(=O)c1cnc2ccccc2c1", "note": "[BIM-18225, α-N-(3-quinolylcarbonyl)-L-tryptyl-N'-phenylethylglycine]", "values": [{"measurement": "% Anti-Spasmodic Activity", "setting": "gastric emptying; [3]", "result": 22, "unit": "%"}]}
{"compound": "O=C(O)CN(CCc1ccccc1)C(=O)C(Cc1c[nH]c2ccccc12)NC(=O)c1cc2ccccc2[nH]1", "note": "[BIM-18216, α-N-(2-indolylcarbonyl) L-tryptyl-N'-phenylethylglycine]", "values": [{"measurement": "ED50", "setting": "gastric emptying; ip", "result": 5.8, "unit": "mg/kg"}, {"measurement": "ED50", "setting": "gastric emptying; iv", "result": 6.6, "unit": "mg/kg"}, {"measurement": "ED50", "setting": "gastric emptying; po", "result": 96.7, "unit": "mg/kg"}, {"measurement": "ED50", "setting": "gastric emptying; sc", "result": 4.5, "unit": "mg/kg"}, {"measurement": "% Anti-Spasmodic Activity", "setting": "gastric emptying; [2]", "result": 78, "unit": "%"}, {"measurement": "% Anti-Spasmodic Activity", "setting": "gastric emptying; Table 3, 1 mg/kg i.p., 15 min before CCK-8", "result": 1, "unit": "%"}, {"measurement": "% Anti-Spasmodic Activity", "setting": "gastric emptying; Table 3, 1 mg/kg s.c., 15 min before CCK-8", "result": 1, "unit": "%"}, {"measurement": "% Anti-Spasmodic Activity", "setting": "gastric emptying; Table 3, 5 mg/kg i.p., 15 min before CCK-8", "result": 45, "unit": "%"}, {"measurement": "% Anti-Spasmodic Activity", "setting": "gastric emptying; Table 3, 5 mg/kg i.v., 15 min before CCK-8", "result": 36, "unit": "%"}, {"measurement": "% Anti-Spasmodic Activity", "setting": "gastric emptying; Table 3, 5 mg/kg s.c., 15 min before CCK-8", "result": 53, "unit": "%"}, {"measurement": "% Anti-Spasmodic Activity", "setting": "gastric emptying; Table 3, 10 mg/kg i.v., 15 min before CCK-8", "result": 70, "unit": "%"}, {"measurement": "% Anti-Spasmodic Activity", "setting": "gastric emptying; Table 3, 10 mg/kg s.c., 15 min before CCK-8", "result": 75, "unit": "%"}, {"measurement": "% Anti-Spasmodic Activity", "setting": "gastric emptying; Table 3, 25 mg/kg i.p., 15 min before CCK-8", "result": 91, "unit": "%"}, {"measurement": "% Anti-Spasmodic Activity", "setting": "gastric emptying; Table 3, 25 mg/kg i.v., 15 min before CCK-8", "result": 123, "unit": "%"}, {"measurement": "% Anti-Spasmodic Activity", "setting": "gastric emptying; Table 3, 25 mg/kg s.c., 15 min before CCK-8", "result": 108, "unit": "%"}, {"measurement": "% Anti-Spasmodic Activity", "setting": "gastric emptying; Table 3, 50 mg/kg p.o., 15 min before CCK-8", "result": 10, "unit": "%"}, {"measurement": "% Anti-Spasmodic Activity", "setting": "gastric emptying; Table 3, 50 mg/kg s.c., 15 min before CCK-8", "result": 112, "unit": "%"}, {"measurement": "% Anti-Spasmodic Activity", "setting": "gastric emptying; Table 3, 75 mg/kg p.o., 15 min before CCK-8", "result": 47, "unit": "%"}, {"measurement": "% Anti-Spasmodic Activity", "setting": "gastric emptying; Table 3, 100 mg/kg p.o., 15 min before CCK-8", "result": 56, "unit": "%"}, {"measurement": "% Anti-Spasmodic Activity", "setting": "gastric emptying; Table 3, 125 mg/kg p.o., 15 min before CCK-8", "result": 81, "unit": "%"}, {"measurement": "% Anti-Spasmodic Activity", "setting": "gastric emptying; Table 3, 250 mg/kg p.o., 15 min before CCK-8", "result": 88, "unit": "%"}, {"measurement": "% Anti-Spasmodic Activity", "setting": "gastric emptying; Table 3, 500 mg/kg p.o., 15 min before CCK-8", "result": 105, "unit": "%"}]}
{"compound": "O=C(O)CN(CCc1ccccc1)C(=O)C(Cc1c[nH]c2ccccc12)NC(=O)c1ccc2ccccc2c1", "note": "[BIM-18226, α-N-(2-naphthylcarbonyl)-L-tryptyl-N'-phenylethylglycine]", "values": [{"measurement": "% Anti-Spasmodic Activity", "setting": "gastric emptying; [1]", "result": 35, "unit": "%"}, {"measurement": "% Anti-Spasmodic Activity", "setting": "gastric emptying; [3]", "result": 88, "unit": "%"}, {"measurement": "IC50", "setting": "Pancreatic CCK Receptor", "result": 500, "unit": "nM"}]}
